Assay results from patent US20190314312A1, “COMBINATION THERAPY TO INCREASE ENDOGENOUS NITRIC OXIDE (NO) SYNTHESIS” (Yeda Research and Development Co. Ltd., priority 2016, published 2019).
Entries after “also recorded” stand apart in the source; their conditions may differ.

How the values were obtained:
Assay type in all cases: in vivo, mouse
control mice = assay: DSS colitis (0.8% DSS) in control mice, fisetin or NaNO2; conditions: control (WT) mice, 0.8% DSS 5 days, fisetin 1 mg IP twice, FIGS. 4L-N
Procedure: Colitis was induced on C57BL/6J.OlaaHsd mice. Mice were treated with 1% DSS for 6 days, followed by administration of either fiselin (1 mg in 30 μl DMSO IP, twice, in 3 days interval) citrulline 1% (wt/vol) solution in drinking water, the combination of both treatments or only DMSO as a control (30 μl DMSO IP, twice, in 3 days interval). […] FIGS. 4L-N—Colitis was induced on enterocytes CKO mice and compared to controls. Mice were treated with 0.8% DSS for 5 days, followed by administration with either NO donors; NaNO2 (100 mg/kg) or fisetin (1 mg in 30 μl DMSO IP, twice, in 3 days interval). […] Note that colitis severity is reduced by activating As1 in enterocytes, by citrulline and fisetin supplementation.
Colitis was induced in Vav1^Cre:As1^f/f mice and CD11c^Cre:As1^f/f with 1.5% DSS and with 0.8% DSS in the Villin^Cre:As1^f/f (wt/vol), (Dextran Sodium Sulfate, MP Biomedicals; molecular weight 36,000-50,000 Da). […]
Colonoscopy was performed on days 7 and 11 of the experiment to monitor for severity of colitis. […] The endoscopic procedure was viewed on a color monitor and digitally recorded on tape. Colitis was scored according to the Murine endoscopic index of colitis severity (MEICS), considering differences in the thickness of the bowel wall, changes in blood vessel integrity, mucosal surface, stool consistency or the presence of fibrin, scored each between 0 and 3. […]

Ass1 = assay: Immunohistochemistry staining of distal colon sections for Ass1; conditions: after colitis induction, fisetin treatment, FIG. 4A
[1] = system: CD45+ immune system cells; assay: FACS analysis of colon CD45+ immune system cells after colitis induction; conditions: fisetin vs control after colitis induction, FIGS. 14A-C
Procedure: Colon segment was flushed with cold PBS, longitudinally cut open and rinsed to remove residual luminal contents. Tissue was cut into 3- to 5-mm pieces and incubated in HBSS medium containing EDTA 0.5 M and Hepes 10 mM at 37° C. for 20 minutes, shaken at 180 rpm, to separate epithelial fraction. Supernatant was centrifuged at 4° C. at 500 g for 10 minutes. Recovered tissue was digested in HBSS medium with 2% fetal bovine serum (FBS), 0.05% collagenase II and 0.05% DNase I (Sigma) for 40 minutes. at 37° C., shaken at 180 rpm. LP cells were filtered through 65 μm mesh and centrifuged at 4° C. at 500 g for 10 minutes. The present inventors prepared single cell suspensions from mouse colon by enzymatic digestion and analyzed by polychromatic flow cytometry. […] Data were acquired on an LSRII (BD Biosciences) or FACSCalibur instrument (Becton-Dickinson) with CellQuest software, with a MacsQuant instrument (Miltenyi, Bergisch Gladbach, Germany), and analyzed using BD FACSDiva 6 or FlowJo software (version 7.6.5, or version vX.0.7 Tree Star Inc) or MacsQuant. […] After staining for cell surface antigens, intracellular NO was detected by incubation of cells for 15 min at 37° C. with 10 μM DAF-FM diacetate followed by extensive washing, according to the manufacturer's instructions (Molecular Probes). […]

O=c1c(O)c(-c2ccc(O)c(O)c2)oc2cc(O)ccc12 [fisetin, 3,7, 3′, 4′-tetrahydroxyflavone] was tested, and the “effect of treatment on colitis (survival, body weight gain, colitis score)” value (control mice) was “improved colitis severity”, the “effect of treatment on colitis (survival, body weight gain, colitis score)” value (control mice; listed as Fisetin) was “effective in the control group” and the “Ass1 expression in distal colon sections (enterocytes)” value (Ass1) was “up regulation”. The “Ass1 expression in distal colon sections (enterocytes)” value (Ass1; listed as fesitin) was “upregulated”, the As1 levels [1] was “decrease” and the iNOS levels [1] was “not in the intestinal immune cells; also recorded: decrease”.
